From patent US20060223743A1, “Metabolites of cyclosporin analogs” (priority 2004, published 2006)

Tested on: calcineurin
Assay: Calcineurin activity assay in whole blood lysates (dephosphorylation of 32P-labelled 19 amino acid peptide substrate)
Type: biochemical
Conditions: in the presence of okadaic acid
Experimental: Calcineurin activity was assayed using a modification of the method previously described by Fruman et al. (A Proc Natl Acad Sci USA, 1992) and in U.S. Pat. No. 6,605,593. Whole blood lysates are evaluated for their ability to dephosphorylate a ^32P-labelled 19 amino acid peptide substrate in the presence of okadaic acid, a phosphatase-type 1 and 2 inhibitor. Background phosphatase 2C activity (CsA and okadaic acid resistant activity) is determined and subtracted from each sample, with the assay performed in the presence and absence of excess added ISA247. The remaining phosphatase activity is taken as calcineurin activity.

With `C=C/C=C/C[C@@H](C)[C@@H](O)[C@H]1C(=O)N[C@@H](CC)C(=O)N(C)CC(=O)N(C)[C@@H](CC(C)C)C(=O)N[C@@H](C(C)C)C(=O)N(C)[C@@H](CC(C)C)C(=O)N[C@@H](C)C(=O)N[C@H](C)C(=O)N(C)[C@@H](CC(C)C)C(=O)N(C)[C@@H](CC(C)C)C(=O)N(C)[C@@H](C(C)C)C(=O)N1C` [Trans ISA247] the “Metabolite EC50” value (calcineurin inhibition) was 0.208 µg/mL and the “Metabolite Emax” value (percent calcineurin inhibition) was 107%.
